According to ChEMBL document CHEMBL4038283, “Synthesis of conformationally restricted 1,3-dioxanes to analyze the bioactive conformation of 1,3-dioxane-based σ1 and PCP receptor antagonists” (Bioorg Med Chem, 2017):

What was measured:
[1] = target: Sigma non-opioid intracellular receptor 1 (Cavia porcellus, UniProt Q60492); test: Displacement of [3H]-(+)-pentazocine from sigma1 receptor in guinea pig brain cortex membrane incubated for 120 mins measured for 5 mins by scintillation counting method; type: cell membranes
Sequence of Sigma non-opioid intracellular receptor 1 (Q60492 whole entry): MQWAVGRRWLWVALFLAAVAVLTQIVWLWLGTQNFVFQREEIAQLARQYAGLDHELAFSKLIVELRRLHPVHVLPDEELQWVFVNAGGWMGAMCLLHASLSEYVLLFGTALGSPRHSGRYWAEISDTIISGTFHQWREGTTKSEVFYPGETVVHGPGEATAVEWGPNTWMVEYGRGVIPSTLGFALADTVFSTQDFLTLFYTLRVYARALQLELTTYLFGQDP

[2] = target: T1, Sigma intracellular receptor 2 (Rattus norvegicus, UniProt Q5U3Y7); test: Displacement of [3H]-di-o-tolylguanidine from sigma2 receptor in rat liver membrane incubated for 120 mins measured for 5 mins by scintillation counting method; type: cell membranes
T1 sequence (Q5U3Y7 whole entry): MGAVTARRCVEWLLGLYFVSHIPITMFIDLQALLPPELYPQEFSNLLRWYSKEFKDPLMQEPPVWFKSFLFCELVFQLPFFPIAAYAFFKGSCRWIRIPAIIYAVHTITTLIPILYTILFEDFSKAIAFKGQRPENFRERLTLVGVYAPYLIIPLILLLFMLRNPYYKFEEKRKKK

[3] = Displacement of [3H]-(+)-MK-801 from NMDA PCP binding site in pig brain cortex membrane incubated for 120 mins measured for 5 mins by scintillation counting method; type: cell membranes, Sus scrofa

SMILES	Ki [1]	Ki [2]	Ki [3]
c1ccc(CN(CCC2CC3OC(Cc4ccccc43)O2)Cc2ccccc2)cc1 (racemic; 22b)	782 nM	> 1000 nM	
NCCC1CC2OC(Cc3ccccc32)O1 (mixture of isomers)	> 1000 nM	> 1000 nM	> 1000 nM
c1ccc(CN(CCC2CC3OC(Cc4ccccc43)O2)Cc2ccccc2)cc1 (racemic; 22a)	1400 nM	> 1000 nM	> 1000 nM
c1ccc(CNCCC2CC3OC(Cc4ccccc43)O2)cc1 (racemic; 21a)	30 nM	> 1000 nM	> 1000 nM
NCCC1CC2OC(Cc3ccccc32)O1 (racemic)	> 1000 nM	> 1000 nM	

Continued, values first:

Ki [1]	Ki [2]	Ki [3]	SMILES
> 1000 nM	> 1000 nM	> 1000 nM	CN(C)CCC1CC2OC(Cc3ccccc32)O1 (racemic)
5.9 nM	153 nM		c1ccc(CNCCC2CC3OC(Cc4ccccc43)O2)cc1 (racemic; 21b)
